{"source": "patent US20230114280A1", "about": "“COMPOSITIONS AND METHODS CONTAINING REDUCED NICOTINAMIDE RIBOSIDE FOR PREVENTION AND TREATMENT OF NEUROLOGICAL DISEASES AND CONDITIONS” (SOCIETE DES PRODUITS NESTLE S.A., priority 2020, published 2023)", "key": {"[1]": {"system": "primary hepatocytes from either control or NRK1 knockout (NRK1 KO) mice", "experiment": "NAD+ levels in primary hepatocytes from control or NRK1 knockout mice", "assay_type": "cell-based", "details": "after 1 hour of treatment", "source_text": "(§1) If NRH led to NAD+ synthesis via the formation of NMNH, this hypothetical path would require the phosphorylation of NRH into NMNH."}, "[2]": {"experiment": "Stability of NRH or NR spiked in isolated mouse plasma", "assay_type": "in vitro ADME", "procedure": "(§2) The UHPLC consisted of a binary pump, a cooled autosampler, and a column oven (DIONEX Ultimate 3000 UHPLC+ Focused, Thermo Scientific), connected to a triple quadrupole spectrometer (TSQ Vantage, Thermo Scientific) equipped with a heated electrospray ionisation (H-ESI) source. Of each sample, 2 µL were injected into the analytical column (2.1 mm x 150 mm, 5 µm pore size, 200 Å HILICON iHILIC®-Fusion(P)), guarded by a pre-column (2.1 mm x 20 mm, 200 Å HILICON iHlLIC®-Fusion(P) Guard Kit) operating at 35° C. The mobile phase (10 mM ammonium acetate at pH 9, A, and acetonitrile, B) was pumped at 0.25 mL/min flow rate over a linear gradient of decreasing organic solvent (0.5-16 min, 90-25% B), followed by re-equilibration for a total run time of 30 min. The MS operated in positive mode at 3500 V with multiple reaction monitoring (MRM). The software Xcalibur v4.1.31.9 (Thermo Scientific) was used for instrument control, data acquisition and processing.\n(§3) NR degradation to NAM has been proposed as a limitation for its pharmacological efficacy."}, "mice": {"system": "mice", "experiment": "Tissue NAD+ levels after IP injection of NR or NRH in mice", "assay_type": "in vivo", "details": "IP 500 mg/kg, after 1 h"}, "[3]": {"experiment": "Circulating NAM, NRH and NR after IP injection in mice", "assay_type": "in vivo", "procedure": "as §2"}, "AML12 hepatocytes": {"system": "AML12 hepatocytes", "experiment": "Intracellular NAD+ levels in AML12 hepatocytes treated with NRH or NR (dose-response, time course)", "assay_type": "cell-based", "procedure": "FIG. 3. NHR acts rapidly after 5 minutes from treatment."}, "C2C12 myotubes": {"system": "C2C12 myotubes", "experiment": "NAD+ levels after NRH treatment in C2C12 myotubes", "assay_type": "cell-based"}, "INS1-cells": {"system": "INS1-cells", "experiment": "NAD+ levels after NRH treatment in INS1-cells", "assay_type": "cell-based"}, "3T3 fibroblasts": {"system": "3T3 fibroblasts", "experiment": "NAD+ levels after NRH treatment in 3T3 fibroblasts", "assay_type": "cell-based"}, "AML12 cells": {"system": "AML12 cells", "experiment": "Pathway of NRH-induced NAD+ synthesis: intracellular metabolites and pathway inhibitors (NBTI, FK866, 5-IT, ABT-702, gallotannin)", "assay_type": "cell-based", "set-up": "action on NAD+ under adenosine kinase inhibition by 5-IT: dose or concentration left out as unconfirmed", "procedure": "FIG. 4. NRH leads to NAD+ biosynthesis through an adenosine kinase dependent path. […] Then, 1 hour later, acidic extracts were obtained to measure NAD^+ levels. All values in the figure are expressed as mean +/- SEM of 3 independent experiments. * indicates statistical difference at p< 0.05 vs. the respective vehicle treated group.\nA path in which NRH would be converted to NMNH, then to NADH and this would be finally oxidized to NAD+.\nIn order to understand the exact path by which NRH synthesizes NAD+, we initially evaluated whether NRH, could be transported into the cell by equilibrative nucleoside transporters (ENTs).\nas §1\nConsidering the molecular structure of NRH, we reasoned that an alternative nucleoside kinase could be responsible for the phosphorylation of NRH.\nAs a follow-up step, NMNAT enzymes could catalyze the transition from NMNH to NADH."}, "[4]": {"source_text": "as §3"}, "[5]": {"system": "Primary rat cortical neurons", "experiment": "Amyloid β oligomer induced loss of neurite network in primary cortical neurons (MAP-2 staining)", "assay_type": "cell-based", "details": "NRH 0.01 mM pre-incubated 24 hr or 6 hr, Aβ1-42 15 µmol/L for 24 h", "procedure": "FIG. 7. […] Primary rat cortical neurons were cultured as described in Callizot et al., 2013. […] The Aβ1-42 preparation was done as described in Callizot et al., 2013. The Aβ1-42 preparation was added to a final concentration of 15 µmol/L (2.25 µmol/L oligomers, AβO) diluted in control medium in presence of compounds and let for 24 h. The cortical neurons were then fixed by a cold solution of ethanol (95%) and acetic acid (5%), permeabilized with saponin and incubated with an anti microtubule-associated-protein 2 (MAP-2), to stain cell bodies and neurites, allowing the study of the length of the neurite network. For each condition, 30 pictures (representative of the all well area) per well were taken using ImageXpress (Molecular Devices) with 20x magnification. Neurite length was then evaluated as % of control values. All values are expressed as mean +/-SEM from 5-6 independent wells. * indicates statistically significant difference vs. the amyloid b1-42 treated groups.\nPrimary rat cortical neurons were cultured as described in Callizot et al., 2013. […] The Aβ1-42 preparation was done as described in Callizot et al., 2013. The Aβ1-42 preparation was added to a final concentration of 15 µmol/L (2.25 µmol/L oligomers, AβO) diluted in control medium in presence of compounds and let for 24 h. […] Neurite length was then evaluated as % of control values."}}, "note": "Entries after “also recorded” stand apart in the source; their conditions may differ. Counter-ions that a name gives are not always drawn.", "data": [{"molecule": "NC(=O)c1ccc[n+]([C@@H]2O[C@H](CO)[C@@H](O)[C@H]2O)c1", "note": "[NR, 1-b-D-ribofuranosyl-3-pyridinecarboxamide salt, reference compound]", "values": [{"measurement": "NAD+ levels in NRK1 KO derived primary hepatocytes", "setting": "[1]", "result": "failed to increase NAD+ levels"}, {"measurement": "generation of NAM in isolated mouse plasma", "setting": "[2]; 2 h of incubation", "result": "increase in NAM"}, {"measurement": "levels of the compound in isolated mouse plasma", "setting": "[2]; 2 h of incubation", "result": "NR levels decayed in plasma"}, {"measurement": "NAD+ levels in liver, muscle and kidney", "setting": "mice", "result": "increased NAD+ levels in liver, muscle and kidney"}, {"measurement": "NAM levels in circulation", "setting": "[3]; mice, IP 500 mg/kg", "result": "highly increased"}]}, {"molecule": "dihydro-1-beta-D-ribofuranosyl-3-pyridinecarboxamide [NRH]", "values": [{"measurement": "ability to increase intracellular NAD+ compared with NR", "setting": "AML12 hepatocytes", "result": "better than NR; also recorded: superior to that of NR"}, {"measurement": "concentration range of maximal effects on NAD+ synthesis", "setting": "AML12 hepatocytes", "result": "around the millimolar range"}, {"measurement": "time to significant increases in NAD+ levels after treatment", "setting": "AML12 hepatocytes", "result": "≤ 5", "unit": "min"}, {"measurement": "increase of intracellular NAD+ levels at maximal effect", "setting": "AML12 hepatocytes; around the millimolar range", "result": "more than 10 fold"}, {"measurement": "concentration at which NAD+ levels are significantly increased", "setting": "AML12 hepatocytes; dose-response", "result": 10, "unit": "µM"}, {"measurement": "NAD+ levels", "setting": "C2C12 myotubes", "result": "highly elevated NAD+ levels"}, {"measurement": "NAD+ levels", "setting": "INS1-cells", "result": "highly elevated NAD+ levels"}, {"measurement": "NAD+ levels", "setting": "3T3 fibroblasts", "result": "highly elevated NAD+ levels"}, {"measurement": "action on NAD+ under adenosine kinase inhibition by 5-IT", "setting": "AML12 cells; 5-IT for 1 hour prior to NRH, NAD+ measured 1 hour later", "result": "fully ablated the action of NRH"}, {"measurement": "formation of NR and NMN after NRH treatment with 5-IT", "setting": "AML12 cells; 5-IT treatment", "result": "prevented the formation of NR and NMN"}, {"measurement": "intracellular detection of NRH and NMNH", "setting": "AML12 cells; 5 minutes after treatment", "result": "could be detected intracellularly"}, {"measurement": "generation of NMNH, NADH and NAD+ upon inhibition of AK (metabolomic analyses)", "setting": "AML12 cells; after NRH treatment", "result": "fully blunted"}, {"measurement": "intracellular NR and NMN after treatment", "setting": "AML12 cells; compared with NR treatment", "result": "increase in intracellular NR and NMN, greater than that triggered by NR itself"}, {"measurement": "NAD+ synthesis with NMNAT inhibitor gallotannin", "setting": "AML12 cells; gallotannin", "result": "largely compromised NAD+ synthesis"}, {"measurement": "NRH action with gallotannin at maximal doses", "setting": "AML12 cells; gallotannin, NRH 0.5 mM", "result": "part of the NRH action remained"}, {"measurement": "NRH action with gallotannin at submaximal doses", "setting": "AML12 cells; gallotannin, submaximal NRH doses", "result": "totally blocked"}, {"measurement": "capacity as extracellular NAD+ precursor under ENT blockade", "setting": "AML12 cells; in the presence of S-(4-nitrobenzyl)-6-thioinosine (NBTI)", "result": "largely lost its capacity as an extracellular NAD+ precursor"}, {"measurement": "action on NAD+ under adenosine kinase inhibition by ABT-702", "setting": "AML12 cells; second, structurally different AK inhibitor ABT-702", "result": "role of AK in NRH-mediated NAD+ synthesis was confirmed"}, {"measurement": "dependence of action on NAMPT", "setting": "AML12 cells; with FK866, a NAMPT inhibitor", "result": "NAMPT-independent"}, {"measurement": "NR production on incubation in isolated plasma", "setting": "[2]", "result": "did not lead to NR production"}, {"measurement": "degradation to NAM in FBS supplemented media", "setting": "[4]", "result": "did not degrade to NAM"}, {"measurement": "NAD+ levels in liver, muscle and kidney", "setting": "mice", "result": "increased NAD+ levels in liver, muscle and kidney"}, {"measurement": "NR in circulation", "setting": "[3]; mouse, in vivo", "result": "much higher levels than those detected after NR injection itself"}, {"measurement": "NAM levels in circulation", "setting": "[3]; mouse, in vivo, ip, 500 mg/kg", "result": "only a very mild increase"}, {"measurement": "neurite network / neurite length after Amyloid β1-42 exposure", "setting": "[5]", "result": "protects against Amyloid β oligomer induced loss of neurite network; also recorded: protects against Amyloid β-oligomer induced toxicity in terms of neurite length"}]}]}
